Results taken from PubChem BioAssay AID2060488 (Molecular Pharmacology Branch, DTP, NCI, 2025).

Tested on: 966289-007-R4-J1-PDC complex spheroid viability
Experiment: Anticancer human tumor 966289-007-R4-J1-PDC patient-derived pancreatic adenocarcinoma cell line growth inhibition [GQUAD]
Conditions: for IC50: curve of first compound; for viability, T/C: stronger effect = lower value; active = viability on the fitted dose curve at most 10% of control; inactive = the rest
From the text: DNA G-quadruplex Stabilizer Agents in Combinations in Complex Spheroids
A high-throughput screen of multi-cell type tumor spheroids was designed to identify active combinations of DNA G-quadruplex stabilizer agents and targeted small molecules. Complex spheroids include a stromal component modeled by human endothelial cells (HUVEC) and fibroblasts modeled by human mesenchymal stem cells (MSCs). The concentration ranges selected for each drug and investigational agent were based upon clinically achievable concentrations if the clinical Cmax of the agent was known.
Compounds. The drugs and investigational agents: pidnarulex (CX-5461; NSC782164), APTO-253 (NSC789042), BRACO-19 (NSC847499), peposertib (NSC802822), ceralasertib (NSC780249), elimusertib (NSC800525), camonsertib (NSC841442), AZD-1390 (NSC803789), olaparib (NSC753686), talazoparib (NSC767125), ART-558 (NSC835418), sotorasib (NSC818433), MRTX-1133 (NSC836407), SN-38 (NSC673596), topotecan (NSC609699), etoposide (NSC141540), doxorubicin (NSC123127), gemcitabine (NSC613327), 5-fluorouracil (NSC19893), paclitaxel (NSC125973), vemurafenib (NSC761431), panobinostat (NSC761190), R-306465 (JNJ-16241199; NSC773264), adavosertib (NSC754352), TP-3654 (NSC805149), carboplatin (NSC241240), KSQ-4279 (NSC840948), and staurosporine (NSC755774) were obtained from the National Cancer Institute (NCI) Developmental Therapeutics Program Chemical Repository (34). The FDA-approved anticancer drug set is available from the NCI Developmental Therapeutics Program. […] The stock solutions were prepared in dimethyl sulfoxide (DMSO, Sigma-Aldrich, St. Louis, MO, cat. D2650) at 800-fold the tested concentration and stored at -70 degrees C prior to their use. All drugs and investigational agents were tested over a range starting from a high concentration at or near the clinical Cmax and decreasing in half-log increments. If the clinical Cmax for an agent had not been determined, the highest concentration tested was 10 microM.
2.3 Cell Culture. All cells were maintained in an incubator at 37 degrees C and 5% CO2 with 95% humidity. The PDC lines were cultured according to standard operating procedures established by the NCI PDMR. All PDCs were thawed and cultured in Matrigel-coated flasks prepared with a working solution of 1X Ham's F-12 nutrient mix, without supplementation (Invitrogen, cat. 11765054), 100 U/mL penicillin-streptomycin (Invitrogen, cat. 15140122), and 2.5% Matrigel (Corning Inc., cat. 354248) for the first three passages. The 857933-349-R-J2-PDC line was cultured in 6C/Colon 1B media, which includes advanced DMEM/F-12 (Thermo Fisher Scientific, cat. 12634028), 10 mM HEPES (Thermo Fisher Scientific, cat. 15630080), 1X GlutaMAX supplement (Thermo Fisher Scientific, cat. 35050061), 0.1 mg/mL primocin (InvivoGen, cat. ant-pm-2), 10% defined fetal bovine serum, heat inactivated (HyClone Laboratories Inc., cat. SH30070.03HI), 50% L-WRN conditioned media (ATCC, cat. CRL-3276), 1.25 mM N-Acetyl-L-cysteine (Sigma-Aldrich, cat. A9165), 10 mM nicotinamide (Sigma-Aldrich, cat. N0636), 1X B-27 supplement (Thermo Fisher Scientific, cat. 17504044), 1X N-2 supplement (Thermo Fisher Scientific, cat. 17502048), 10 microM Y-27632 dihydrochloride (Tocris Bioscience, cat. 1254), and 50 ng/mL human EGF recombinant protein (Thermo Fisher Scientific, cat. PHG0311). The 485176-168-R4-J1-PDC line was cultured in Panc media, which includes all 6C/Colon 1B media components plus 100 ng/mL human FGF-10 (Thermo Fisher Scientific, cat. 100-26), 500 nM SB-431542 (Selleckchem, cat. S1067), and gastrin (Tocris, cat. 3006).
[…]

[1] = second compound 0.0316 µM, first compound 0.0316 µM
[2] = second compound 0.0316 µM, first compound 0.316 µM
[3] = second compound 0.1 µM, first compound 0.0316 µM
[4] = second compound 0.1 µM, first compound 0.316 µM
[5] = second compound 0.316 µM, first compound 0.0316 µM
[6] = second compound 0.316 µM, first compound 0.316 µM
[7] = second compound 1 µM, first compound 0.0316 µM
[8] = second compound 1 µM, first compound 0.316 µM
[9] = second compound 3.16 µM, first compound 0.0316 µM
[10] = second compound 3.16 µM, first compound 0.316 µM
[11] = second compound 10 µM, first compound 0.0316 µM
[12] = second compound 10 µM, first compound 0.316 µM
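Note: spheroids exposed to the agents for seven days before readout.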
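Throughout, for viability, T/C: percent viability relative to DMSO vehicle control wells taken as 100%.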

C=CC(=O)N1CCN(c2nc(=O)n(-c3c(C)ccnc3C(C)C)c3nc(-c4c(O)cccc4F)c(F)cc23)C(C)C1 (centres undefined) + Cc1cnc(CNC(=O)c2c(=O)c3ccc(N4CCCN(C)CC4)nc3n3c2sc2ccccc23)cn1
> 10000 nM: IC50 (second compound 0.0316 µM)
inactive: viability, T/C [1] 109% | viability, T/C (second compound 0.0316 µM, first compound 0.1 µM) 102% | viability, T/C [2] 112% | viability, T/C (second compound 0.0316 µM, first compound 1 µM) 98% | viability, T/C (second compound 0.0316 µM, first compound 3.16 µM) 103% | viability, T/C (second compound 0.0316 µM, first compound 10 µM) 88.2% | viability, T/C [3] 31.1% | viability, T/C (second compound 0.1 µM, first compound 0.1 µM) 37.4% | viability, T/C [4] 37.1% | viability, T/C (second compound 0.1 µM, first compound 1 µM) 31.9% | viability, T/C (second compound 0.1 µM, first compound 3.16 µM) 37% | viability, T/C (second compound 0.1 µM, first compound 10 µM) 25.3% | viability, T/C [5] 11.3% | viability, T/C (second compound 0.316 µM, first compound 0.1 µM) 12.7% | viability, T/C [6] 11.5% | viability, T/C (second compound 0.316 µM, first compound 1 µM) 12.2% | viability, T/C (second compound 0.316 µM, first compound 3.16 µM) 13.4% | viability, T/C (second compound 0.316 µM, first compound 10 µM) 10.3%
< 31.6 nM: IC50 (second compound 0.1 µM) | IC50 (second compound 0.316 µM) | IC50 (second compound 1 µM) | IC50 (second compound 3.16 µM) | IC50 (second compound 10 µM)
active: viability, T/C [7] 7.08% | viability, T/C (second compound 1 µM, first compound 0.1 µM) 5.8% | viability, T/C [8] 5.81% | viability, T/C (second compound 1 µM, first compound 1 µM) 6.58% | viability, T/C (second compound 1 µM, first compound 3.16 µM) 9.48% | viability, T/C (second compound 1 µM, first compound 10 µM) 9.07% | viability, T/C [9] 4.85% | viability, T/C (second compound 3.16 µM, first compound 0.1 µM) 4.57% | viability, T/C [10] 5.54% | viability, T/C (second compound 3.16 µM, first compound 1 µM) 5.93% | viability, T/C (second compound 3.16 µM, first compound 3.16 µM) 7.14% | viability, T/C (second compound 3.16 µM, first compound 10 µM) 8.52% | viability, T/C [11] 0.11% | viability, T/C (second compound 10 µM, first compound 0.1 µM) 0.14% | viability, T/C [12] 0.14% | viability, T/C (second compound 10 µM, first compound 1 µM) 0.16% | viability, T/C (second compound 10 µM, first compound 3.16 µM) 2.33% | viability, T/C (second compound 10 µM, first compound 10 µM) 0.13%

CC[C@@]1(O)C(=O)OCc2c1cc1n(c2=O)Cc2cc3c(CN(C)C)c(O)ccc3nc2-1 + Cc1cnc(CNC(=O)c2c(=O)c3ccc(N4CCCN(C)CC4)nc3n3c2sc2ccccc23)cn1
< 0.999 nM: IC50 (second compound 0.1 µM) | IC50 (second compound 0.316 µM) | IC50 (second compound 1 µM) | IC50 (second compound 3.16 µM) | IC50 (second compound 10 µM)
inactive: viability, T/C (second compound 0.0316 µM, first compound 0.000999 µM) 114% | viability, T/C (second compound 0.0316 µM, first compound 0.00316 µM) 101% | viability, T/C (second compound 0.0316 µM, first compound 0.00999 µM) 70.2% | viability, T/C [1] 11% | viability, T/C (second compound 0.1 µM, first compound 0.000999 µM) 37.3% | viability, T/C (second compound 0.1 µM, first compound 0.00316 µM) 28.6% | viability, T/C (second compound 0.1 µM, first compound 0.00999 µM) 16.8% | viability, T/C (second compound 0.316 µM, first compound 0.000999 µM) 9.34%
14.7 nM: IC50 (second compound 0.0316 µM)
active: viability, T/C (second compound 0.0316 µM, first compound 0.0999 µM) 0.58% | viability, T/C [2] 0.79% | viability, T/C [3] 3.15% | viability, T/C (second compound 0.1 µM, first compound 0.0999 µM) 0.77% | viability, T/C [4] 0.75% | viability, T/C (second compound 0.316 µM, first compound 0.00316 µM) 13.5% | viability, T/C (second compound 0.316 µM, first compound 0.00999 µM) 8.56% | viability, T/C [5] 2.61% | viability, T/C (second compound 0.316 µM, first compound 0.0999 µM) 0.93% | viability, T/C [6] 0.49% | viability, T/C (second compound 1 µM, first compound 0.000999 µM) 5.94% | viability, T/C (second compound 1 µM, first compound 0.00316 µM) 5.56% | viability, T/C (second compound 1 µM, first compound 0.00999 µM) 4.48% | viability, T/C [7] 1.71% | viability, T/C (second compound 1 µM, first compound 0.0999 µM) 0.92% | viability, T/C [8] 0.68% | viability, T/C (second compound 3.16 µM, first compound 0.000999 µM) 3.9% | viability, T/C (second compound 3.16 µM, first compound 0.00316 µM) 3.89% | viability, T/C (second compound 3.16 µM, first compound 0.00999 µM) 3.05% | viability, T/C [9] 0.13% | viability, T/C (second compound 3.16 µM, first compound 0.0999 µM) 0.08% | viability, T/C [10] 0.07% | viability, T/C (second compound 10 µM, first compound 0.000999 µM) 0.03% | viability, T/C (second compound 10 µM, first compound 0.00316 µM) 0.08% | viability, T/C (second compound 10 µM, first compound 0.00999 µM) 0.12% | viability, T/C [11] 0.09% | viability, T/C (second compound 10 µM, first compound 0.0999 µM) 0.3% | viability, T/C [12] 0.11%
